According to patent US20180172712A1, “METHODS AND MATERIALS FOR ASSESSING HYDROGEN PEROXIDE ACCUMULATION IN CELLS” (Mayo Foundation for Medical Education and Research, priority 2015, published 2018):
Read-outs that look alike come from different tables or passages of the source.

Legend:
myeloma cells [1] = test: Intracellular H2O2 accumulation in myeloma cells; type: cell-based, human
myeloma cells [2] = test: MTT assay of auranofin in myeloma cells; type: cell-based, human
Text: (§1) The data were normalized to the DMSO-treated group.

thioredoxin reductase = test: Thioredoxin reductase inhibition
Horseradish peroxidase = target: T1, Horseradish peroxidase (Armoracia rusticana, UniProt P00433); test: HRP/Amplex Red in-vitro assay; type: biochemical; conditions: 10 μM drug, 5 μM H2O2, 30 minutes
T1 sequence (P00433 31-338 limits assumed): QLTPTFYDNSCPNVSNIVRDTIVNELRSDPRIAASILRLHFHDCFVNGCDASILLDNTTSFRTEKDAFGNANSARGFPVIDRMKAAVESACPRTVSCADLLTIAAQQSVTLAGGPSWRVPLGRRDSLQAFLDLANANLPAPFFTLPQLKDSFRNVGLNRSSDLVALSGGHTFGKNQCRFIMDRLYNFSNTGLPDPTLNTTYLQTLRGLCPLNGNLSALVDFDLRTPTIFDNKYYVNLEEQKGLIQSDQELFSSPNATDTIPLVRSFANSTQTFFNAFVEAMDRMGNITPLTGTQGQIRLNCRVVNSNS
Procedure: (§2) After 30 minutes, plates were read for fluorescence at 530 nm excitation and 590 nm emission with plate reader (Biotek Cytation3). For determining intra-cellular peroxidase activity by Amplex Red, cells were washed and mixed with Amplex Red reagent (50 μM) in HBSS buffer and plated 100,000 cells per well into 96 well plate, four wells for each condition. […] The DMSO control included H2O2 (100 μM). […] After specific time periods, the plates were read for fluorescence intensity using plate reader.

[3] = tested on: intracellular peroxidases in HMCLs; test: Intra-cellular peroxidase activity by Amplex Red in HMCLs; type: cell-based, human; conditions: for intracellular H2O2 decomposition mediated by peroxidases: different myeloma cell lines, thalidomide 20 μM, lenalidomide 20 μM, pomalidomide 10 μM, 40 to 60 minutes
Procedure: as §2

RPMI-8226 myeloma cells = test: Anti-oxidative capacity by FAD and NAD(P)H autofluorescence flow cytometry; type: cell-based, human; conditions: pre-treatment of myeloma cells, then external H2O2
Procedure: HMCLs cells (1 million cells/1 mL PBS) treated or not treated with 100 μM concentration of H2O2 were immediately analyzed for autofluoresnece of FAD (FITC-A channel) and NAD(P)H (UV Blue-A channel) with multicolor flow cytometry (BD LSRFORTESSA). Flowjo histogram normalization was used to overlay untreated versus treated samples.

[4] = tested on: Myeloma cell line harboring CRBN or without CRBN; test: Cell survival of myeloma cell line harboring CRBN or without CRBN treated with cofactors; type: cell-based, human; conditions: cofactor alone
Text: as §1

myeloma cells [5] = test: MTT assay of dehydroascorbic acid in myeloma cells; type: cell-based, human; conditions: high concentrations
Text: as §1

[6] = tested on: OCIMY5-Vector and OCIMY-CRBN cells; test: MTT assay in OCIMY5-Vector and OCIMY-CRBN cells; conditions: 72 hours
Procedure: Cell viability was assessed by 3-(4,5-dimethylthiazol-2-yl)-2,5-diphenyltetrazolium bromide (MTT) colorimetric assay. […] The data were normalized to the DMSO-treated group. Each experimental condition was performed in triplicate and repeated at least once. Thalidomide was obtained from Sigma, and pomalidomide was obtained from Selleckchem.
(§3) Human CRBN cDNA was obtained from Thermo Scientific and subcloned into a lentiviral expression vector, pCDH-CMV-MCS-EF1-copGFP (System Bioscience). Lentivirus harboring control vector and CRBN cDNA constructs were prepared and used to infect the multiple myeloma (MM) cell line OCIMY5. Infection efficiency was measured by FACScan analysis of GFP expression 3 days after infection. The cells were sorted for GFP expression 14 days after infection.

IKZF1 and IKZF3 [7] = test: Western blot of IKZF1 and IKZF3 in MM.1S cells; type: cell-based, human; conditions: for IKZF1 and IKZF3 degradation: MM.1S cells, 3 hours (lenalidomide 10 μM, H2O2 100 μM, PX12 20 μM)
Text: (§4) Proteins were transferred to polyvinylidene fluoride membranes (Bio-Rad).

IKZF1 and IKZF3 [8] = test: Western blot of IKZF1 and IKZF3 in OPM2 cells; type: cell-based, human; conditions: PX12 20 μM, within 3 hours
Text: as §4

[9] = tested on: myeloma cell line harboring CRBN and myeloma cell line without CRBN; test: Viability of myeloma cell lines with auranofin and bortezomib; type: cell-based, human; conditions: bortezomib in combination with auranofin
PARP = PARP cleavage immunoblot in OPM2-NT and OPM2-shCRBN cells; type: cell-based, human; conditions: OPM2 CRBN-positive cells; bortezomib 2.5 nM 2 days
Text: as §4

OPM2 cells = test: Apoptosis assay (Annexin V/propidium iodide FACS) in OPM2 cells; type: cell-based, human; conditions: lenalidomide 10 μM pretreatment two days, bortezomib 2.5 nM 2 days
Procedure: Treated cells were harvested and stained for flow cytometry with Annexin V-fluorescein isothiocyanate and propidium iodide (BD Pharmingen). Stained cells were analyzed with a BD LSRII flow cytometer, and the data were analyzed with BD fluorescence-activated cell sorting (FACs) DIVA software.

IKZF1 and IKZF3 [10] = conditions: OPM2-NT vs OPM2-shCRBN; H2O2 25 or 50 μM, 3 hours
Text: as §4

RPMI-8226 cells = test: MTT assay in RPMI-8226 cells; type: cell-based, human; conditions: RPMI-8226, 3 days
Text: as §1

IKZF1 and IKZF3 [11] = test: Western blot of IKZF1 and IKZF3 in OCIMY-5 cells overexpressing CRBN; type: cell-based, human; conditions: lenalidomide 10 μM or H2O2 25 or 50 μM, within 3 hours
Procedure: as §4, §3

MM.1S cells = test: MTT assay in MM.1S cells; type: cell-based, human; conditions: 3 days
Text: as §1

IgL-λ dimers = test: IgL dimerization immunoblot under nonreducing conditions in MM.1S cells; type: cell-based, human; conditions: 3 hours, lenalidomide 10 μM or H2O2 25 μM
Text: as §4

[12] = OCIMY5-Vector (CRBN deficient) cells
[13] = OCIMY-CRBN (CRBN positive) cells

## CC(=O)OC[C@H]1O[C@@H]([S-])[C@H](OC(C)=O)[C@@H](OC(C)=O)[C@@H]1OC(C)=O.CCP(CC)CC.[Au+] [auranofin]
Myeloma cells [1]
  intracellular H2O2 accumulation: effective at accumulating intracellular H2O2
Myeloma cells [2]
  CRBN dependence of inhibition of cancer cell proliferation: irrespective of CRBN level
  potency in inhibiting cancer cell proliferation, compared with lenalidomide: more potent than lenalidomide
Myeloma cells [2]; myeloma cells
  cancer cell viability (MTT): reducing cancer cell viability
Thioredoxin reductase
  potency in inhibiting thioredoxin reductase, compared with lenalidomide: more potent than lenalidomide

## Nc1cccc2c1C(=O)N(C1CCC(=O)NC1=O)C2=O (centres unmarked) [pomalidomide]
Horseradish peroxidase
  decomposition of H2O2 by horseradish peroxidase (Amplex Red to resorufin): inhibited
[3]; FIG. 1C-E and FIG. 2A
  inhibition of intracellular peroxidases compared among IMIDs: more potentially than thalidomide and lenalidomide
[3]
  intracellular H2O2 decomposition mediated by peroxidases: inhibit intracellular H2O2 decomposition

## NC(=O)CCCCC1CCSS1 (centres unmarked) [lopoamide]
RPMI-8226 myeloma cells
  anti-oxidative capacity (FADH2 and NAD(P)H oxidation): decreased myeloma cells anti-oxidative capacity

## NC(=O)C1=CN([C@@H]2O[C@H](COP(=O)(O)OP(=O)(O)OC[C@H]3O[C@@H](n4cnc5c(N)ncnc54)[C@H](O)[C@@H]3O)[C@@H](O)[C@H]2O)C=CC1 [NADH]
[4]
  cell survival: induced cell death

## O=C1CCC(N2C(=O)c3ccccc3C2=O)C(=O)N1 (centres unmarked) [thalidomide]
Horseradish peroxidase
  decomposition of H2O2 by horseradish peroxidase (Amplex Red to resorufin): inhibited
[3]
  intracellular H2O2 decomposition mediated by peroxidases: inhibit intracellular H2O2 decomposition

## O=C(O)CCCC[C@@H]1CCSS1 [lipoic acid]
RPMI-8226 myeloma cells
  anti-oxidative capacity (FADH2 and NAD(P)H oxidation): decreased myeloma cells anti-oxidative capacity

## O=C1O[C@H]([C@@H](O)CO)C(=O)C1=O [DHA, Dehydroascorbic acid]
Myeloma cells [5]
  myeloma cell proliferation (MTT): inhibited myeloma cell proliferation

## NC(=O)C1=CN([C@@H]2O[C@H](COP(=O)(O)OP(=O)(O)OC[C@H]3O[C@@H](n4cnc5c(N)ncnc54)[C@H](OP(=O)(O)O)[C@@H]3O)[C@@H](O)[C@H]2O)C=CC1 [NADPH]
[4]
  cell survival: induced cell death

## O=C([O-])CC([S-])C(=O)[O-].[Au+].[Na+].[Na+] (centres unmarked) [ATM, sodium aurothiomalate]
[6]; [12]
  cell proliferation (MTT): did not inhibit cell proliferation
[6]; [13]
  cell proliferation (MTT): did not inhibit cell proliferation

## CCC(C)SSc1ncc[nH]1 (centres unmarked) [PX12, 1-methylpropyl 2-imidazolyl disulfide]
[6]; [12]
  cell proliferation (MTT): inhibited cell proliferation
[6]; [13]
  cell proliferation (MTT): inhibited cell proliferation
IKZF1 and IKZF3 [7]
  IKZF1 and IKZF3 degradation: induced IKZF1 and IKZF3 degradation
IKZF1 and IKZF3 [8]
  IKZF1 and IKZF3 degradation: induced IKZF1 and IKZF3 degradation

## CC(C)C[C@H](NC(=O)[C@H](Cc1ccccc1)NC(=O)c1cnccn1)B(O)O [bortezomib]
[9]
  interaction with auranofin (percent viability): synergy
PARP
  bortezomib-induced PARP cleavage after lenalidomide pretreatment: enhanced
OPM2 cells
  bortezomib-induced apoptosis in cells pretreated with lenalidomide vs not pretreated: increased sensitivity

## OO [H2O2, hydrogen peroxide]
IKZF1 and IKZF3 [10]
  IKZF1 and IKZF3 degradation: in a CRBN-dependent fashion
RPMI-8226 cells
  sensitivity of cell line (MTT): resistant
IKZF1 and IKZF3 [11]
  IKZF1 and IKZF3 degradation: enhanced IKZF1 and IKZF3 degradation
MM.1S cells
  sensitivity of cell line (MTT): hypersensitive
IgL-λ dimers
  formation of IgL-λ dimers: increased formation of IgL-λ dimers
IKZF1 and IKZF3 [7]
  IKZF1 and IKZF3 degradation: degraded IKZF1 and IKZF3 most effectively
IKZF1 and IKZF3 [7]; MM.1S, 3 hours of treatment
  IKZF1 degradation: prominent
IKZF1 and IKZF3 [7]; MM.1S, exogenous H2O2 50 μM
  time of peak IKZF1 dimerization after treatment: 60 min
IKZF1 and IKZF3 [7]; MM.1S, nonreducing conditions, lenalidomide 10 μM or exogenous H2O2 50 μM
  IKZF1 dimerization: induced IKZF1 dimerization

## NC(=O)c1ccc[n+]([C@@H]2O[C@H](COP(=O)([O-])OP(=O)(O)OC[C@H]3O[C@@H](n4cnc5c(N)ncnc54)[C@H](O)[C@@H]3O)[C@@H](O)[C@H]2O)c1 [NAD]
[4]
  cell survival: induced cell death

## NC(=O)c1ccc[n+]([C@@H]2O[C@H](COP(=O)([O-])OP(=O)(O)OC[C@H]3O[C@@H](n4cnc5c(N)ncnc54)[C@H](OP(=O)(O)O)[C@@H]3O)[C@@H](O)[C@H]2O)c1 [NADP]
[4]
  cell survival: induced cell death
